Data: the supplement of paper PMC10883282

Columns and labels:
Experiment in all cases: relative viability vs DMSO control (72 h) (fraction); higher = more viable cells
VA-ES-BJ = tested on: VA-ES-BJ
In short: (§1)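 After seeding at densities set for 80–90% confluence in 384-well plates, sarcoma cell lines waited 24 h before 2.5 µl of serially diluted compound was added. Source plates held 10 mM down to 0.0002 mM. Plates were incubated 72 h at 37 °C with 5% CO2, with 0.1% DMSO vehicle and a 5 µM positive control, and relative viability was taken from ATPLite as percent growth averaged over up to triplicate wells, with 1 set as full and 0 as none.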

SW982 = tested on: SW982
In short: as §1

SW684 = tested on: SW684
In short: as §1

G401 = tested on: G401
In short: as §1

A204 = tested on: A204
In short: as §1

KHOS-NP = tested on: KHOS-NP
In short: as §1

SK-ES-1 = tested on: SK-ES-1
In short: as §1

HS729 = tested on: HS729
In short: as §1

RD-ES = tested on: RD-ES
In short: as §1

SK-LMS-1 = tested on: SK-LMS-1
In short: as §1

HT1080 = tested on: HT1080
In short: as §1

SW872 = tested on: SW872
In short: as §1

CCc1nc(C(N)=O)c(Nc2ccc(N3CCC(N4CCN(C)CC4)CC3)c(OC)c2)nc1NC1CCOCC1 [Gilteritinib]
Settings	relative viability
A204, 60 pM	1.05
A204, 0.00018 µM	1.01
A204, 0.00053 µM	1.04
A204, 0.0016 µM	1.04
A204, 0.0048 µM	1.02
A204, 0.014 µM	1.02
A204, 0.043 µM	1.03
A204, 0.13 µM	0.943
A204, 0.389 µM	0.742
A204, 1.167 µM	0.502
A204, 3.5 µM	0.385
G401, 60 pM	1.03
G401, 0.00018 µM	0.985
G401, 0.00053 µM	0.968
G401, 0.0016 µM	0.998
G401, 0.0048 µM	0.981
G401, 0.014 µM	0.979
G401, 0.043 µM	0.971
G401, 0.13 µM	0.851
G401, 0.389 µM	0.661
G401, 1.167 µM	0.478
G401, 3.5 µM	0.457
HS729, 60 pM	0.9885
HS729, 0.00018 µM	0.928
HS729, 0.00053 µM	0.924
HS729, 0.0016 µM	0.875
HS729, 0.0048 µM	0.828
HS729, 0.014 µM	0.797
HS729, 0.043 µM	0.74
HS729, 0.13 µM	0.63
HS729, 0.389 µM	0.47
HS729, 1.167 µM	0.357
HS729, 3.5 µM	0.322
HT1080, 60 pM	1.08
HT1080, 0.00018 µM	1.032
HT1080, 0.00053 µM	0.999
HT1080, 0.0016 µM	1.04
HT1080, 0.0048 µM	1.07
HT1080, 0.014 µM	1.05
HT1080, 0.043 µM	1.05
HT1080, 0.13 µM	1.05
HT1080, 0.389 µM	1
HT1080, 1.167 µM	0.6791
HT1080, 3.5 µM	0.595
KHOS-NP, 60 pM	1.08
KHOS-NP, 0.00018 µM	1.12
KHOS-NP, 0.00053 µM	1.07
KHOS-NP, 0.0016 µM	1.1
KHOS-NP, 0.0048 µM	1.061
KHOS-NP, 0.014 µM	1.06
KHOS-NP, 0.043 µM	1.03
KHOS-NP, 0.13 µM	1.02
KHOS-NP, 0.389 µM	0.959
KHOS-NP, 1.167 µM	0.83
KHOS-NP, 3.5 µM	0.695
RD-ES, 60 pM	0.986
RD-ES, 0.00018 µM	0.961
RD-ES, 0.00053 µM	0.9574
RD-ES, 0.0016 µM	0.968
RD-ES, 0.0048 µM	0.963
RD-ES, 0.014 µM	0.938
RD-ES, 0.043 µM	0.88
RD-ES, 0.13 µM	0.687
RD-ES, 0.389 µM	0.316
RD-ES, 1.167 µM	0.11
RD-ES, 3.5 µM	0.14
SK-ES-1, 60 pM	0.996
SK-ES-1, 0.00018 µM	1.03
SK-ES-1, 0.00053 µM	1.07
SK-ES-1, 0.0016 µM	1.01
SK-ES-1, 0.0048 µM	0.979
SK-ES-1, 0.014 µM	0.964
SK-ES-1, 0.043 µM	0.932
SK-ES-1, 0.13 µM	0.697
SK-ES-1, 0.389 µM	0.208
SK-ES-1, 1.167 µM	0.112
SK-ES-1, 3.5 µM	0.119
SK-LMS-1, 60 pM	1.03
SK-LMS-1, 0.00018 µM	1.01
SK-LMS-1, 0.00053 µM	1.01
SK-LMS-1, 0.0016 µM	1.03
SK-LMS-1, 0.0048 µM	0.985
SK-LMS-1, 0.014 µM	1.018
SK-LMS-1, 0.043 µM	0.977
SK-LMS-1, 0.13 µM	0.929
SK-LMS-1, 0.389 µM	0.765
SK-LMS-1, 1.167 µM	0.504
SK-LMS-1, 3.5 µM	0.398
SW684, 60 pM	1.08
SW684, 0.00018 µM	1.13
SW684, 0.00053 µM	1.11
SW684, 0.0016 µM	1.14
SW684, 0.0048 µM	1.15
SW684, 0.014 µM	1.13
SW684, 0.043 µM	1.09
SW684, 0.13 µM	0.889
SW684, 0.389 µM	0.633
SW684, 1.167 µM	0.506
SW684, 3.5 µM	0.491
SW872, 60 pM	1.03
SW872, 0.00018 µM	1.01
SW872, 0.00053 µM	1.01
SW872, 0.0016 µM	1.01
SW872, 0.0048 µM	0.98
SW872, 0.014 µM	0.949
SW872, 0.043 µM	0.905
SW872, 0.13 µM	0.787
SW872, 0.389 µM	0.493
SW872, 1.167 µM	0.341
SW872, 3.5 µM	0.305
SW982, 60 pM	0.9618
SW982, 0.00018 µM	0.996
SW982, 0.00053 µM	0.978
SW982, 0.0016 µM	0.967
SW982, 0.0048 µM	0.988
SW982, 0.014 µM	0.947
SW982, 0.043 µM	0.945
SW982, 0.13 µM	0.612
SW982, 0.389 µM	0.277
SW982, 1.167 µM	0.195
SW982, 3.5 µM	0.2
VA-ES-BJ, 60 pM	0.988
VA-ES-BJ, 0.00018 µM	0.986
VA-ES-BJ, 0.00053 µM	0.993
VA-ES-BJ, 0.0016 µM	1.02
VA-ES-BJ, 0.0048 µM	1
VA-ES-BJ, 0.014 µM	0.997
VA-ES-BJ, 0.043 µM	1.04
VA-ES-BJ, 0.13 µM	0.937
VA-ES-BJ, 0.389 µM	0.713
VA-ES-BJ, 1.167 µM	0.433
VA-ES-BJ, 3.5 µM	0.3

CN(C)C(=O)c1cc2cnc(Nc3ccc(N4CCNCC4)cn3)nc2n1C1CCCC1 [Ribociclib]
Settings	relative viability
A204, 0.00017 µM	1.07
A204, 0.00051 µM	1.09
A204, 0.00152 µM	1.08
A204, 0.00457 µM	1.09
A204, 0.01372 µM	1.05
A204, 0.04115 µM	1.05
A204, 0.1235 µM	0.967
A204, 0.3704 µM	0.907
A204, 1.111 µM	0.921
A204, 3.333 µM	0.795
A204, 10 µM	0.639
G401, 0.00017 µM	0.987
G401, 0.00051 µM	0.968
G401, 0.00152 µM	1.02
G401, 0.00457 µM	0.983
G401, 0.01372 µM	0.97
G401, 0.04115 µM	0.899
G401, 0.1235 µM	0.898
G401, 0.3704 µM	0.886
G401, 1.111 µM	0.846
G401, 3.333 µM	0.794
G401, 10 µM	0.774
HS729, 0.00017 µM	0.88
HS729, 0.00051 µM	0.877
HS729, 0.00152 µM	0.878
HS729, 0.00457 µM	0.893
HS729, 0.01372 µM	0.905
HS729, 0.04115 µM	0.915
HS729, 0.1235 µM	0.928
HS729, 0.3704 µM	0.875
HS729, 1.111 µM	0.89
HS729, 3.333 µM	0.87
HS729, 10 µM	0.869
HT1080, 0.00017 µM	1.08
HT1080, 0.00051 µM	1.11
HT1080, 0.00152 µM	1.08
HT1080, 0.00457 µM	1.08
HT1080, 0.01372 µM	1.05
HT1080, 0.04115 µM	1.08
HT1080, 0.1235 µM	1.1
HT1080, 0.3704 µM	1.09
HT1080, 1.111 µM	1.12
HT1080, 3.333 µM	1.09
HT1080, 10 µM	0.978
KHOS-NP, 0.00017 µM	1.08
KHOS-NP, 0.00051 µM	1.07
KHOS-NP, 0.00152 µM	1.06
KHOS-NP, 0.00457 µM	1.07
KHOS-NP, 0.01372 µM	1.06
KHOS-NP, 0.04115 µM	1.07
KHOS-NP, 0.1235 µM	1.07
KHOS-NP, 0.3704 µM	1.08
KHOS-NP, 1.111 µM	1.08
KHOS-NP, 3.333 µM	1.08
KHOS-NP, 10 µM	1.03
RD-ES, 0.00017 µM	0.9605
RD-ES, 0.00051 µM	0.9809
RD-ES, 0.00152 µM	0.959
RD-ES, 0.00457 µM	0.985
RD-ES, 0.01372 µM	0.926
RD-ES, 0.04115 µM	0.9
RD-ES, 0.1235 µM	0.845
RD-ES, 0.3704 µM	0.773
RD-ES, 1.111 µM	0.735
RD-ES, 3.333 µM	0.602
RD-ES, 10 µM	0.546
SK-ES-1, 0.00017 µM	1.03
SK-ES-1, 0.00051 µM	1.04
SK-ES-1, 0.00152 µM	1.06
SK-ES-1, 0.00457 µM	1.02
SK-ES-1, 0.01372 µM	1.04
SK-ES-1, 0.04115 µM	0.989
SK-ES-1, 0.1235 µM	0.837
SK-ES-1, 0.3704 µM	0.761
SK-ES-1, 1.111 µM	0.659
SK-ES-1, 3.333 µM	0.466
SK-ES-1, 10 µM	0.427
SK-LMS-1, 0.00017 µM	1.05
SK-LMS-1, 0.00051 µM	1.05
SK-LMS-1, 0.00152 µM	1.12
SK-LMS-1, 0.00457 µM	1.08
SK-LMS-1, 0.01372 µM	1.09
SK-LMS-1, 0.04115 µM	1.11
SK-LMS-1, 0.1235 µM	1.06
SK-LMS-1, 0.3704 µM	1.01
SK-LMS-1, 1.111 µM	0.99
SK-LMS-1, 3.333 µM	0.952
SK-LMS-1, 10 µM	0.9041
SW684, 0.00017 µM	1.16
SW684, 0.00051 µM	1.16
SW684, 0.00152 µM	1.14
SW684, 0.00457 µM	1.15
SW684, 0.01372 µM	1.13
SW684, 0.04115 µM	1.15
SW684, 0.1235 µM	1.15
SW684, 0.3704 µM	1.14
SW684, 1.111 µM	1.17
SW684, 3.333 µM	1.1
SW684, 10 µM	1.05
SW872, 0.00017 µM	1.03
SW872, 0.00051 µM	1.01
SW872, 0.00152 µM	1.02
SW872, 0.00457 µM	1.02
SW872, 0.01372 µM	1.02
SW872, 0.04115 µM	0.996
SW872, 0.1235 µM	0.959
SW872, 0.3704 µM	0.938
SW872, 1.111 µM	0.946
SW872, 3.333 µM	0.818
SW872, 10 µM	0.713
SW982, 0.00017 µM	1.03
SW982, 0.00051 µM	1.03
SW982, 0.00152 µM	1.04
SW982, 0.00457 µM	1.0148
SW982, 0.01372 µM	1.05
SW982, 0.04115 µM	1.02
SW982, 0.1235 µM	0.992
SW982, 0.3704 µM	1.02
SW982, 1.111 µM	0.993
SW982, 3.333 µM	0.788
SW982, 10 µM	0.66
VA-ES-BJ, 0.00017 µM	1.03
VA-ES-BJ, 0.00051 µM	1.04
VA-ES-BJ, 0.00152 µM	1.01
VA-ES-BJ, 0.00457 µM	0.995
VA-ES-BJ, 0.01372 µM	0.988
VA-ES-BJ, 0.04115 µM	0.985
VA-ES-BJ, 0.1235 µM	0.931
VA-ES-BJ, 0.3704 µM	0.869
VA-ES-BJ, 1.111 µM	0.872
VA-ES-BJ, 3.333 µM	0.712
VA-ES-BJ, 10 µM	0.597
